Laboratory results published in patent publication US9657009B2, “Heteroaryl substituted pyridyl compounds useful as kinase modulators” (BRISTOL-MYERS SQUIBB COMPANY, priority 2012, dated 2017).
Where two headings read alike, the source gives them in different places. Values belong to the compound of their own block, whether it stands above or below them.

Legend:
IRAK4 = IRAK4 (Homo sapiens (Human), UniProt Q9NWZ3); test: IRAK4 Inhibition Assay; type: biochemical
Procedure: IRAK4 Inhibition Assay The assays were performed in U-bottom 384-well plates. […] The reaction was initiated by the combination of IRAK4 with substrates and test compounds. The reaction mixture was incubated at room temperature for 60 min. and terminated by adding 45 μL of 35 mM EDTA to each sample.

[1] = test system: TLR2 induced IL-6 in peripheral blood mononuclear cells (PBMCs); test: PBMC TLR2 Induced IL-6 Assay; type: cell-based; conditions: lipoteichoic acid 10 μg/ml, IL-6 by ELISA; for IC50: values without asterisk, read-out: Cell IC50
Procedure: PBMC TLR2 Induced IL-6 Assay Peripheral blood mononuclear cells (PBMCs) were isolated from human blood containing the anti-coagulant EDTA (2.5 mM) by centrifugation over a FICOLL® gradient. […] At the end of the culture, plates were centrifuged at 1800 rpm for 10 minutes to pellet the cells. Supernatants were harvested and analyzed for IL-6 levels by ELISA (BD Biosciences, San Jose, Calif.).

[2] = ATP 500 μM; IRAK4 0.6 nM; 60 min at room temperature; read-out: IRAK4 IC50
[3] = human PBMCs, 5 hours, values marked * are EC50, read-out: Cell EC50 (*EC50)

IRAK4, sequence (Q9NWZ3 whole entry, species assumed): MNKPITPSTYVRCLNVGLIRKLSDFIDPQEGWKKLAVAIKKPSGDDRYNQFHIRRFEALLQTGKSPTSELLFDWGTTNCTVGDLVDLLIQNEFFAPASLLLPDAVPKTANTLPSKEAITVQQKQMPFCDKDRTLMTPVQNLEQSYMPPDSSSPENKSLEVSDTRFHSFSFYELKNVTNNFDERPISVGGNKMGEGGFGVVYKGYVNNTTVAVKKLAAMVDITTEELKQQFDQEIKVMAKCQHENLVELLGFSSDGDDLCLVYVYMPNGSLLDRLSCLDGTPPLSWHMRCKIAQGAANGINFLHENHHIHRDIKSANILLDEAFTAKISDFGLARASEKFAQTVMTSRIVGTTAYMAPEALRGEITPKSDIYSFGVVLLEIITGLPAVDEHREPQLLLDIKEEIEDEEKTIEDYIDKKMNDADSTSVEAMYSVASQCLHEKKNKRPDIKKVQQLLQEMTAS

Structure (SMILES): CC(C)(O)[C@H](F)CNC(=O)c1cnc(Nc2ncc(C#N)cc2Cl)cc1NC1CCC(F)C1 (some centres unmarked) [Example 158]
IC50 (IRAK4; [2]): 2.3 nM | EC50 [1, 3]: 102 nM

Structure (SMILES): CC(C)Nc1cc(Nc2ncc(C#N)cc2F)ncc1C(=O)NC1CCC(C(C)(O)C2CC2)CC1 (centres unmarked) [Example 145]
IC50 (IRAK4; read-out: IRAK4 IC50; ATP 500 μM; IRAK4 0.6 nM; 60 min at room temperature): 4.3 nM | EC50 [1, 3]: 275 nM

Structure (SMILES): CC(C)(O)[C@H](F)CNC(=O)c1cnc(Nc2ncc(C#N)cc2Cl)cc1NC1CCCC1F (some centres unmarked) [Example 74]
IC50 (IRAK4; [2]): 2.7 nM | EC50 [1, 3]: 84 nM

Structure (SMILES): CC(C)(O)[C@H](F)CNC(=O)c1cnc(Nc2ncc(C#N)cc2Cl)cc1NC1CCC(F)C1 (some centres unmarked) [Example 157]
IC50 (IRAK4; [2]): 2 nM | EC50 ([1]; Homo sapiens, PBMC, 5 h, values marked * are EC50, read-out: Cell EC50 (*EC50)): 71 nM

Structure (SMILES): CC(C)(O)[C@H](F)CNC(=O)c1cnc(Nc2ncc(F)cc2F)cc1NC1CCCOC1 (some centres unmarked) [Example 109]
IC50 (IRAK4; [2]): 13.7 nM | EC50 [1, 3]: 350 nM

Structure (SMILES): CC(C)(O)[C@H](F)CNC(=O)c1cnc(Nc2ncc(C#N)cc2Cl)cc1NC1CCCC1F (some centres unmarked) [Example 73]
IC50 (IRAK4; [2]): 1.5 nM | EC50 [1, 3]: 132 nM

Structure (SMILES): CC(C)(O)[C@H](F)CNC(=O)c1cnc(Nc2ncc(F)cc2F)cc1NC1CCCOC1 (some centres unmarked) [Example 110]
IC50 (IRAK4; [2]): 15.7 nM | EC50 [1, 3]: 705 nM

Structure (SMILES): CC(C)(O)[C@H](F)CNC(=O)c1cnc(Nc2ncc(C#N)cc2Cl)cc1NC1CCC(F)C1 (some centres unmarked) [Example 62]
IC50 (IRAK4; [2]): 1.7 nM | EC50 [1, 3]: 52 nM

Structure (SMILES): CC(C)(O)[C@H](F)CNC(=O)c1cnc(Nc2ncc(C#N)cc2F)cc1NC1CCC(F)C1 (some centres unmarked) [Example 115]
IC50 (IRAK4; [2]): 4.5 nM | EC50 [1, 3]: 65 nM

Structure (SMILES): CC(C)(O)[C@H](F)CNC(=O)c1cnc(Nc2ncc(C#N)cc2Cl)cc1NC1CCCC1F (some centres unmarked) [Example 71]
IC50 (IRAK4; [2]): 2.8 nM | EC50 [1, 3]: 394 nM

Structure (SMILES): CC(F)[C@@H](C)Nc1cc(Nc2ncc(C#N)cc2Cl)ncc1C(=O)NC[C@@H](F)C(C)(C)O (some centres unmarked) [Example 160]
EC50 [1, 3]: 846 nM

Structure (SMILES): CC(C)(O)[C@H](F)CNC(=O)c1cnc(Nc2ncc(C#N)cc2Cl)cc1NC1CCC(F)C1 (some centres unmarked) [Example 57]
IC50 (IRAK4; [2]): 1.8 nM | EC50 [1, 3]: 68 nM

Structure (SMILES): CC(C)Nc1cc(Nc2ccnc(NC3CCCOC3)n2)ncc1C(=O)NC[C@@H](F)C(C)(C)O (stereo partly drawn) [Example 25, N-((2R)-2-fluoro-3-hydroxy-3-methylbutyl)-4-(isopropylamino)-6-((2-(tetrahydro-2H-pyran-3-ylamino)-4-pyrimidinyl)amino)nicotinamide]
IC50 (IRAK4; [2]): 9.9 nM

Structure (SMILES): CC(C)(O)[C@H](F)CNC(=O)c1cnc(Nc2ncncc2Cl)cc1NC1CCCOC1 (some centres unmarked) [Example 96]
IC50 (IRAK4; [2]): 11.2 nM

Structure (SMILES): CC(C)(O)[C@H](F)CNC(=O)c1cnc(Nc2nc(OC3CCNCC3)ncc2Cl)cc1NC1CC1 [Example 42]
IC50 (IRAK4; [2]): 14.7 nM

Structure (SMILES): CC(C)(O)[C@H](F)CNC(=O)c1cnc(Nc2ncc(C#N)cc2F)cc1Nc1cccc(C(N)=O)c1 [Example 135]
IC50 (IRAK4; [2]): 6 nM

Structure (SMILES): CC(F)[C@@H](C)Nc1cc(Nc2ncc(C#N)cc2Cl)ncc1C(=O)NC[C@@H](F)C(C)(C)O (some centres unmarked) [Example 159]
EC50 [1, 3]: 130 nM

Structure (SMILES): COC(=O)N[C@H]1CC[C@H](NC(=O)c2cnc(Nc3ncc(C#N)cc3F)cc2NC(C)C)CC1 [Example 165]
IC50 (IRAK4; [2]): 11.3 nM

Structure (SMILES): CNC(=O)c1cnc(Nc2ccc(C#N)cn2)cc1N[C@@H](c1ccccc1)[C@H](O)CO [Example 1, 6-((5-cyano-2-pyridinyl)amino)-4-(((1S,2S)-2,3-dihydroxy-1-phenylpropyl)amino)-N-methylnicotinamide]
IC50 (IRAK4; [2]): 53.9 nM

Structure (SMILES): Cn1nnnc1-c1ccc(Nc2cc(Nc3ncc(C#N)cc3Cl)ncc2C(=O)NC[C@@H](F)C(C)(C)O)cc1 [Example 148]
IC50 (IRAK4; [2]): 3.4 nM

Structure (SMILES): CC(=O)N[C@H]1CC[C@H](NC(=O)c2cnc(Nc3ccc(C#N)cn3)cc2NC2CCOCC2F)CC1 (stereo partly drawn) [Example 11, N-((1R,4R)-4-acetamidocyclohexyl)-6-((5-cyanopyridin-2-yl)amino)-4-(((3S,4R)-3-fluorotetrahydro-2H-pyran-4-yl)amino)nicotinamide]
IC50 (IRAK4; [2]): 11.1 nM

Structure (SMILES): CNC(=O)[C@H]1CC[C@H](NC(=O)c2cnc(Nc3ncc(C#N)cc3F)cc2NC2CC2)CC1 [Example 59]
IC50 (IRAK4; [2]): 7.4 nM

Structure (SMILES): CC(C)(O)[C@H](F)CNC(=O)c1cnc(Nc2ncc(C#N)cc2F)cc1Nc1ccc(C(N)=O)cc1 [Example 142]
IC50 (IRAK4; [2]): 1.2 nM

Structure (SMILES): CC(C)(O)[C@H](F)CNC(=O)c1cnc(Nc2ncc(C#N)c(N)n2)cc1NC1CC1 [Example 154]
IC50 (IRAK4; [2]): 5.2 nM

Now from value to compound, other results behind:

IC50 (IRAK4; [2]): 3.5 nM
Structure (SMILES): CC(C)(O)[C@H](F)CNC(=O)c1cnc(Nc2ncc(C#N)cn2)cc1NC1CCC(F)C1 (some centres unmarked) [Example 87]
EC50 [1, 3]: 197 nM

IC50 (IRAK4; [2]): 5.9 nM
Structure (SMILES): CC(C)(O)[C@H](F)CNC(=O)c1cnc(Nc2ncc(C#N)cn2)cc1N[C@H]1CCC[C@@H]1F [Example 54]
IC50 ([1]; human PBMCs, 5 hours): 126 nM

IC50 (IRAK4; [2]): 5.4 nM
Structure (SMILES): CC(C)(O)[C@H](F)CNC(=O)c1cnc(Nc2ncc(C#N)cn2)cc1NC1CCC(F)C1 (some centres unmarked) [Example 88]
EC50 [1, 3]: 266 nM

IC50 (IRAK4; [2]): 3.7 nM
Structure (SMILES): CC(C)(O)[C@H](F)CNC(=O)c1cnc(Nc2ncc(C#N)cc2Cl)cc1NC1CCCC1O (some centres unmarked) [Example 78]
EC50 [1, 3]: 64 nM

IC50 (IRAK4; [2]): 3.2 nM
Structure (SMILES): CC(C)(O)[C@H](F)CNC(=O)c1cnc(Nc2ncc(C#N)cc2Cl)cc1NC1CCCC1F (some centres unmarked) [Example 70]
EC50 [1, 3]: 91 nM

IC50 (IRAK4; [2]): 5.6 nM
Structure (SMILES): C[C@@H](CO)Nc1cc(Nc2ncc(C#N)cn2)ncc1C(=O)NC[C@@H](F)C(C)(C)O [Example 101]

IC50 (IRAK4; [2]): 10.2 nM
Structure (SMILES): CC(Nc1cc(Nc2ncc(C#N)cn2)ncc1C(=O)NC[C@@H](F)C(C)(C)O)C1CC1 (some centres unmarked) [Example 163]

IC50 (IRAK4; [2]): 10.3 nM
Structure (SMILES): CCNc1cc(Nc2ccc(C#N)cn2)ncc1C(=O)NC[C@@H](F)C(C)(C)O [Example 4, 6-((5-cyano-2-pyridinyl)amino)-4-(ethylamino)-N-((2R)-2-fluoro-3-hydroxy-3-methylbutyl)nicotinamide]

IC50 (IRAK4; [2]): 3.5 nM
Structure (SMILES): CC(C)(O)[C@H](F)CNC(=O)c1cnc(Nc2ncc(C#N)cc2Cl)cc1NC12CC(C1)C2 [Example 90]

IC50 (IRAK4; [2]): 6 nM
Structure (SMILES): CCCNc1cc(Nc2ncc(C#N)cc2F)ncc1C(=O)NC[C@@H](F)C(C)(C)O [Example 139]

IC50 (IRAK4; [2]): 2.3 nM
Structure (SMILES): CC(C)(O)[C@H](F)CNC(=O)c1cnc(Nc2ncc(C#N)cc2F)cc1NC1CCC(F)C1 (some centres unmarked) [Example 114]

IC50 (IRAK4; [2]): 5 nM
Structure (SMILES): CC(C)(O)[C@H](F)CNC(=O)c1cnc(Nc2ncc(C#N)cn2)cc1N[C@H]1CCC[C@@H]1F [Example 55]
IC50 ([1]; human PBMCs, 5 hours): 27 nM

IC50 (IRAK4; [2]): 2.9 nM
Structure (SMILES): CC(C)(O)[C@H](F)CNC(=O)c1cnc(Nc2ncc(C#N)cc2F)cc1NCC(F)(F)C(C)(C)O [Example 126]

IC50 (IRAK4; [2]): 15.9 nM
Structure (SMILES): Cc1cnc(Nc2cc(NC(C)C)c(C(=O)NC[C@@H](F)C(C)(C)O)cn2)c(F)c1 [Example 129]

IC50 (IRAK4; [2]): 4.2 nM
Structure (SMILES): CCC(C)Nc1cc(Nc2ncc(C#N)cn2)ncc1C(=O)NC[C@@H](F)C(C)(C)O (some centres unmarked) [Example 99]

IC50 (IRAK4; [2]): 6.1 nM
Structure (SMILES): CC(=O)Nc1nc(Nc2cc(NC(C)C)c(C(=O)NC[C@@H](F)C(C)(C)O)cn2)ncc1C#N [Example 34]

IC50 (IRAK4; [2]): 3 nM
Structure (SMILES): CC(C)(O)[C@H](F)CNC(=O)c1cnc(Nc2ncc(C#N)cc2F)cc1NC1CCC(F)C1 (some centres unmarked) [Example 82]
EC50 [1, 3]: 105 nM
